Source: US20080226596A1, “Therapeutic compositions and methods useful in treating hepatitis” (priority 2006, published 2008)
Entries after “also recorded” stand apart in the source; their conditions may differ.

What was measured:
SHP-1 = molecular target: T1, SHP-1 (Mus musculus, UniProt P29351); test: In vitro PTPase assay, recombinant GST/SHP-1; format: biochemical; conditions: for inhibitory activity against SHP-1: 3-4 μg/ml or 10-100 μg/ml
T1 construct: made in house
Experimental: (§1) In vitro PTPase activities were measured using the commercial protein tyrosine phosphatase assay kit (Upstate Biotechnology, Inc. (“UBI”)) following established procedure known to one of skill in the art. This assay measures the in vitro dephosphorylation of a synthetic phosphotyrosine peptide of the sequence Arg-Arg-Leu-Ile-Glu-Asp-Ala-Gle-Tyr-Ala-Ala-Arg-Gly, wherein the tyrosine is phosphorylated (SEQ ID NO: 3). Briefly, 0.01 µg of GST/PTPase fusion proteins was incubated in 50 μL of Tris buffer (10 mM Tris, pH 7.4) containing different concentrations of inhibitors or chemicals (0-1,000 μg/ml) at 22° C. for 10 minutes, followed by addition of 0.2 mM of the phosphotyrosine peptide and incubation at 22° C. for 18 hours. 100 μL of Malachite Green solution was added and incubated for 5 minutes, and the absorbance at 660 nm was measured after 5 minutes.
In vitro PTPase assays were used to determine the effects of compounds on recombinant PTPases, following established procedures using a synthetic phosphotyrosine peptide or DiFMUP as the substrate (Pathak et al., J. Imumol. 167, 3391 (2001)). Briefly, individual PTPases (0.1 µg/reaction) in 50 μL of PTPase buffer (50 mM Tris, pH 7.4) were incubated at 22° C. for 10 minutes or as indicated in the absence or presence of inhibitory compounds. Substrates (0.2 mM phosphotyrosine peptide) were then added and allowed to react at 22° C. for 18 hrs. PTPase activity of individual reactions was measured by adding 100 µL of malachite green solution (UBI) and then quantifying the amounts of free phosphate cleaved by the PTPase from the peptide substrate by spectrometry (OD660 nm). PTPase assays using DiFMUP as a substrate were conducted following a previously described procedure (Matter, et al., Biochem. Biophys. Res. Comm. 283, 1061 (2001)). Relative PTPase activities were calculated based on the formula: (PTPase activity in the presence of an inhibitory compound/PTPase activity in the absence of the compound)× 100%. To assess the reversibility of PTPase inhibition, GST fusion proteins of the PTPases bound on glutathione beads (Pharmacia) were pre-incubated with cold Tris buffer (50 mM Tris, pH 7.0) or Tris buffer containing the inhibitor at 4° C. for 30 minutes. The beads were then washed three times in cold Tris buffer or not washed prior to subjecting to in vitro PTPase assays.
(§2) In vitro PTPase assays were used to determine the effects of levamisole (Sigma), pentamidine (American Pharmaceutical Partners, Inc.), and ketoconazole (Sigma) on recombinant PTPases, following established procedures (Pathak et al., J. Imumol. 167, 3391 (2001); Pathak et al., Leukemia 16, 2285 (2002), Yi et al., J. Immunol. 169, 5978 (2002)) using a synthetic phosphotyrosine peptide or DiFMUP as the substrate as detailed above in section I.A.2.

MKP1 = molecular target: T2, MKP1 (Homo sapiens, UniProt P28562); test: In vitro PTPase assay, GST/MKP1; format: biochemical
T2 construct: GST (N); made in house; host or cells: DH5a bacteria
T2 sequence (P28562 1-367): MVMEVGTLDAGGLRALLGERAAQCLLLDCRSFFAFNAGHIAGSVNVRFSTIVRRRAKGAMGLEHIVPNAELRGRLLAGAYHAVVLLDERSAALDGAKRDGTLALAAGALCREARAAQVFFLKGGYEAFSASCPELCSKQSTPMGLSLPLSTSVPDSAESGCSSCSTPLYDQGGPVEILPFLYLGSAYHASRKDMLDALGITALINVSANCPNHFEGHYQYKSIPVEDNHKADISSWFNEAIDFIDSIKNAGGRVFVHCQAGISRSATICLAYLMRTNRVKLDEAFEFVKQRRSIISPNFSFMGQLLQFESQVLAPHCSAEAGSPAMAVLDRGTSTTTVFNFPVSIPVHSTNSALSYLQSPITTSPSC
Experimental: as §1, §2

T1 sequence (P29351 whole entry): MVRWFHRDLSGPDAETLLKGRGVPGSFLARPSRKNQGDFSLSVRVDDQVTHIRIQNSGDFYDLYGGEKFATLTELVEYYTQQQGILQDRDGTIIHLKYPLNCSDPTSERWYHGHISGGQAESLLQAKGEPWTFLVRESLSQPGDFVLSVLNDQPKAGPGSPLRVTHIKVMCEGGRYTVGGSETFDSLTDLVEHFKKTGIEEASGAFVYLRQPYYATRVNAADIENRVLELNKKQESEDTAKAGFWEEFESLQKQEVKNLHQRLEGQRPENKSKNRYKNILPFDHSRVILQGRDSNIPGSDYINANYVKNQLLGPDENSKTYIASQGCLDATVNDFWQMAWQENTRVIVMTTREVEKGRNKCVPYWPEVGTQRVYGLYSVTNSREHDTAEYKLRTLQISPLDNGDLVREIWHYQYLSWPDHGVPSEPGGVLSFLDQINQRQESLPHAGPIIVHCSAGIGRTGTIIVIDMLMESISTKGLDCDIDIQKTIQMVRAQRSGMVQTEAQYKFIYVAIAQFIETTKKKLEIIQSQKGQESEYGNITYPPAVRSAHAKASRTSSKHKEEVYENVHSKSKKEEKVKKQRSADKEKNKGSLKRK

Compound	inhibitory activity against SHP-1 (SHP-1)	inhibition of MKP1 (MKP1)	SHP-1 phosphatase activity (SHP-1; 10 μg/ml)	inhibitory activity against MKP1 (MKP1)
CC(=O)N1CCN(c2ccc(OCC3COC(Cn4ccnc4)(c4ccc(Cl)cc4Cl)O3)cc2)CC1 (stereo not shown) [ketoconazole]	no obvious inhibitory activity	substantial inhibition		
N=C(N)c1ccc(OCCCCCOc2ccc(C(=N)N)cc2)cc1 [pentamidine]	no obvious inhibitory activity	substantial inhibition		
O.O.O.O.O.O.O.O.O.O=C([O-])[C@@H]1[O][Sb]2([O-])([O][Sb]34([OH])[O][C@H]([C@H](O)CO)[C@H]([O]3)[C@H](C(=O)[O-])[O]4)[O][C@H]([C@H](O)CO)[C@@H]1[O]2.[Na+].[Na+].[Na+] [sodium stibogluconate]		no obvious effects	almost completely inhibited; also recorded: inactivated SHP-1	no obvious inhibitory activity
